Data published in US20200316087A1, “NOVEL COMBINATION THERAPY FOR ANXIETY DISORDERS, EPILEPSY, AND PAIN” (priority 2017, published 2020).

Assays:
[1] = system: electroshock-induced seizures; assay: Mouse electroshock-induced seizure model; type: in vivo; conditions: mice; for Electroshock to Criteria: MED producing maximal protection (0% seizures); for Electroshock (minimal effective dose, MED): lowest dose with statistically significant protection vs vehicle
Experimental: This assay detects effects of compounds that produce generalized seizures and those that dampen seizure spread. Male, CD1 mice (Taconic Farms) were studied at weights of 21-32 g. Mice=10/dose) were used with Wahlquist Model H stimulator with 0.2 sec stimulation with corneal electrodes. […] Mice were euthanized immediately following the test. Tonic extension was used as the primary endpoint.
(§1) For the in vivo assays, minimal effective doses (MED) were calculated in mg/kg. MED was defined as the lowest dose administered that produced statistically significant protection compared to vehicle control in the anticonvulsant assays. The MED, or minimal toxic dose (MTD) for motor impairment, was the minimal dose required to produce statistically-significant impairment in motor performance. Doses tested are shown in the figures and tables and are generally dosed in ½ log increments. The protective index (PT) was calculated at the MTD/MED.

[2] = system: immobility in forced-swim test; assay: Forced-swim assay; type: in vivo, mice; conditions: male NIH Swiss mice, i.p., 30 min prior
Experimental: Male NIH Swiss mice (Envigo, Indianapolis, Ind.) were studied. Mice were placed in clear plastic cylinders (diameter: 10 cm; height: 25 cm) filled with 6 cm of water (22-25° C.) for six min. […] The duration of immobility during the last four min of the six min test period was scored. A mouse was recorded as immobile when floating motionless or making only those movements necessary to keep its head above water.

PTZ seizure threshold = assay: Pentylenetetrazole (PTZ, i.v.)-induced seizure threshold; type: in vivo, rats; conditions: for PTZ Threshold to Criteria: MED for producing ≥2× PTZ seizure threshold at baseline; for PTZ Threshold Poteny (MED): lowest dose with statistically significant effect, PTZ i.v.; for PTZ Threshold Poteny (MED) / effect on dose of PTZ required to induce convulsions: rats; for effect on dose of PTZ required to induce convulsions: PTZ i.v. infusion, pretreatment 30 min
Experimental: Male […] Sprague-Dawley rats (Indianapolis, Ind.) were randomly assigned to treatment groups and dosed with vehicle (vehicle=1% carboxymethyl cellulose) with diazepam (0.1, 0.3, or 1 mg/kg) or test compound (3, 10, 30, or 60 mg/kg) 30 minutes prior to testing. Rats were placed in a restrainer and a winged infusion needle was inserted into the lateral tail vein. Intravenous infusion with 10 mg/ml PTZ at a rate of 0.5 ml/min was initiated until a clonic convulsion occurred, and the time to clonic convulsion was recorded in sec or a maximum of 4 min was recorded. Following infusion, rats are euthanized. The dose of PTZ required to elicit a clonic convulsion was calculated using the infusion rate, concentration of PTZ, time to clonic convulsion, and animal weight.

[3] = system: motor performance on an inverted screen; assay: Rat inverted screen test (motor impairment); conditions: rats
Excerpt: The motor effects of Diazepam and KRM-II-81 were studied on the inverted screen. The inverted screen test is used to measure whether or not a test compound induces muscle relaxation. When a test subject is placed on a wire screen which is then inverted, the reaction is to climb to the opposite side so they are no longer hanging upside down.
Male, Sprague Dawley rats (Harlan Sprague Dawley, Indianapolis, Ind.) were used and weighed 90-110 g when evaluated in experiments. […] Rats were placed onto the top of a wire screen, which was then inverted so that the rats were hanging upside down.
Male Sprague-Dawley rats (n=5) were dosed i.p. (vehicle=1% carboxymethyl cellulose) with diazepam (3, 10, or 30 mg/kg), KRM-II-81 (10, 30, or 60 mg/kg) or HZ-166 (30 mg/kg) 30 minutes prior to testing. Rats were placed onto the top of a wire screen, which was then inverted so that the rats were hanging upside down. […] Results were analyzed using ANOVA (Dunnett's test: *P<0.05).
as §1

PTZ-induced clonus = assay: Pentylenetetrazole (PTZ, 35 mg/kg s.c.)-induced clonic convulsions; type: in vivo; conditions: rats; for PTZ Clonus to Criteria 1: MED producing maximal protection (0% seizures); for PTZ Clonus Potency (MED): lowest dose with statistically significant protection; for PTZ Clonus Potency (MED) / protection against PTZ-induced clonus: PTZ 35 mg/kg s.c.
Experimental: After the inverted screen test, the rats were dosed with pentylenetetrazole (PTZ)(35 mg/kg, s.c.) in a volume of 1 ml/kg and placed in an observation cage (40.6×20.3×15.2 cm) with a floor containing […] of wood chip bedding material. PTZ dose was determined to be ˜EC97 for producing clonic convulsions.

[4] = system: seizures in amygdala kindled rats; assay: Basolateral amygdala kindling; type: in vivo; conditions: for After-Discharge Duration to Criteria: MED for producing after-discharge duration ≤30 sec; for After-Discharge Threshold to Criteria: MED for producing after-discharge threshold ≥3; for Seizure Severity to Criteria: MED for producing seizure severity score ≤2; for After-Discharge Duration Potency (MED) / After-Discharge Threshold Potency (MED) / Seizure Severity Poteny (MED) / effect on adjusted after-discharge threshold (ADT) / effect on after-discharge duration (ADD) / effect on seizure severity score / kindling measures / Seizure free scores (seizure severity=0): amygdala kindled rats; for Seizure free scores (seizure severity=0): groups of 8
Experimental: Seizure kindling models evaluate effects of drugs on the sensitization of the nervous system to seizure induction. In this test, drugs were evaluated for their ability to impact seizure parameters in rats that were fully kindled by daily electrical stimulation of their amygdala. Valproic acid was used as a positive control. Experiments were conducted using the general procedures of Zwart et al. (J. Pharmacol. Exp. Ther., 2014, 351:124-133). A bipolar electrode for electrical stimulation and EEG recording was stereotaxically implanted into one hemisphere of the basolateral amygdala (AP −2.2, ML −4.8, DV −8.5 mm, relative to bregma) of male Wistar rats. After post-operative recovery, electrical kindling begins, where a subthreshold constant current (400 μA, 1 ms, monophasic square-wave pulses, 60 Hz for 1 sec) is given once a day Monday-Friday for about 4-6 weeks until a rat is fully kindled. A fully kindled rat has experienced 10 consecutive stage 5 seizures or 10 of its last 12 were stage 5 according to the Racine Scale.
Twelve fully kindled rats were assigned to this study, and eight rats were selected and randomized to initial compound treatment groups from baseline after discharge threshold (ADT), seizure severity score, and after discharge duration (ADD). […] On test day, rats were dosed 30 min prior to beginning stimulation. After the pre-treatment, rats were stimulated using an ascending staircase sequence beginning at 10 μA and increasing in log unit steps of 10, 16, 25, 40, 65, 100, 160, 250, and 400 μA. Animals were stimulated until they were assigned a Seizure Severity Score for a visually observably seizure or they reached the 400 μA threshold limit. ADD was determined following testing. ADT was the current that induced a seizure; measurements were scale-adjusted to capture the stimulation scale change required to observe a seizure from the previous baseline to the ADT scored on test day. […] The average scale adjusted ADT was approximately 0.63 μA in vehicle treated rats.
Racine score of behavioral response to stimulation: 0=no behavioral response; 1=immobility, staring and/or facial clonus; 2=head nodding, jaw clonus, and/or tongue protrusion; 3=unilateral forelimb clonus; 4=bilateral forelimb clonus and/or rearing; 5=bilateral forelimb clonus with rearing and loss of balance.
After-Discharge Duration (ADD) is the duration of the first after-discharge.
ADT, ADD, and severity scores were analyzed by ANOVA. Seizure severity data was also analyzed by the nonparametric Skillings-Mack test, a generalization of the Friedman test for one-way repeated measures designs. Posthoc tests when reported were either by Dunnett's method (seizure severity) or using Wilcoxon sign rank tests (ADT and ADD). Valproic acid, used as a positive control was not used in ANOVA calculations.

Compound | Electroshock to Criteria [1] [mg/kg] | Electroshock (minimal effective dose, MED) [1] [mg/kg] | protection against electroshock-induced seizures [1] | immobility in forced-swim assay [2] | PTZ Threshold to Criteria (PTZ seizure threshold) [mg/kg] | PTZ Threshold Poteny (MED) (PTZ seizure threshold) [mg/kg] | effect on dose of PTZ required to induce convulsions (PTZ seizure threshold) | PTZ Clonus to Criteria 1 (PTZ-induced clonus) [mg/kg] | PTZ Clonus Potency (MED) (PTZ-induced clonus) [mg/kg] | protection against PTZ-induced clonus (PTZ-induced clonus) | After-Discharge Duration to Criteria [4] [mg/kg] | After-Discharge Threshold to Criteria [4] [mg/kg] | Seizure Severity to Criteria [4] [mg/kg] | After-Discharge Duration Potency (MED) [4] [mg/kg] | After-Discharge Threshold Potency (MED) [4] [mg/kg] | Seizure Severity Poteny (MED) [4] [mg/kg] | effect on adjusted after-discharge threshold (ADT) [4] | effect on after-discharge duration (ADD) [4] | effect on seizure severity score / kindling measures [4] | Seizure free scores (seizure severity=0) [4] | also measured
C#Cc1ccc2c(c1)C(c1ccccc1)=NCc1c(-c3cnco3)ncn1-2 [KRM-II-82, 5-(8-ethynyl-6-phenyl-4H-benzo[f]imidazo[1,5-a][1,4]diazepin-3-yl)oxazole] | 30 | 30 | fully prevented | significantly decreased immobility time | 30 | 10 | increased the dose of PTZ required to induce convulsions | 30 | 10 | dose-dependently suppressed | >30 | 30 | >30 | >30 | 10 | 10 | significantly increased | trend for a significant effect | trend toward efficacy | 1/8 | effect on motor performance ([3]; up to 30 mg/kg, inverted screen): without significant effect on motor performance
C#Cc1ccc2c(c1)C(c1ccccn1)=NCc1c(-c3cnco3)ncn1-2 [KRM-II-81, 5-(8-ethynyl-6-(pyridin-2-yl)-4H-benzo[f]imidazo[1,5-a][1,4]diazepin-3-yl)oxazole] | 30 | 10 | fully prevented | moderate, dose-dependent decrease in immobility | 30 | 10 | increased the dose of PTZ required to induce convulsions | 30 | 30 | fully prevented | 10 | 10 | 10 | 10 | 10 | 10 | significantly increased | significant decreases | most efficacious and potent | 7/8 | dose of PTZ required to induce convulsions (PTZ seizure threshold; pretreated with 10 mg/kg of KRM-II-81, vehicle baseline 35.1±1.2 mg/kg): 71 mg/kg; muscle relaxation on inverted screen (result in words) ([3]; i.p., 30 min prior, KRM-II-81 10-60 mg/kg, HZ-166 30 mg/kg): Neither HZ-166 nor KRM-II-81 induced significant muscle relaxation; dose at which signs of muscle relaxation began to appear ([3]; i.p., inverted screen): 60 mg/kg
